The subject of the assay is CD2F1 mice, L1210 leukemia ip, survival T/C. The experiment in a line: NCI In Vivo Anticancer Drug Screen. Data for tumor model L1210 Leukemia (intraperitoneal) in CD2F1 (CDF1) mice. To be noted: higher = longer survival. In short, it runs like this:
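Each value reflects a quotient of treated over vehicle control outcomes in mice with a transplanted tumor.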

[1] abbreviates: endpoint: mean survival time, dose: 100.0 mg/kg/injection, schedule: Q04DX003 (ip), vehicle: saline with Tween-80.
Setting [2] is: endpoint: mean survival time, dose: 100.0 mg/kg/injection, schedule: Q04DX003 (ip), vehicle: saline.
Where [3] appears, read: endpoint: mean survival time, dose: 200.0 mg/kg/injection, schedule: Q04DX003 (ip), vehicle: saline with Tween-80.
The mark [4] stands for this setting: endpoint: mean survival time, dose: 200.0 mg/kg/injection, schedule: Q04DX003 (ip), vehicle: saline.
[5] abbreviates: endpoint: mean survival time, dose: 400.0 mg/kg/injection, schedule: Q04DX003 (ip), vehicle: saline with Tween-80.
[6] abbreviates: endpoint: mean survival time, dose: 400.0 mg/kg/injection, schedule: Q04DX003 (ip), vehicle: saline.
The mark [7] stands for this setting: endpoint: mean survival time, dose: 100.0 mg/kg/injection, schedule: Q01DX001 (ip), vehicle: saline with Tween-80.
Where [8] appears, read: endpoint: mean survival time, dose: 200.0 mg/kg/injection, schedule: Q01DX001 (ip), vehicle: saline with Tween-80.
Where [9] appears, read: endpoint: mean survival time, dose: 100.0 mg/kg/injection, schedule: Q01DX009 (ip), vehicle: saline with Tween-80.
Where [10] appears, read: endpoint: mean survival time, dose: 200.0 mg/kg/injection, schedule: Q01DX009 (ip), vehicle: saline with Tween-80.

Toxic doses and inconclusive results are not listed.

Take `Nc1ccc(OC(=O)Oc2ccc(N)cc2)cc1`: the T/C is, setting by setting: (endpoint: mean survival time, dose: 18.75 mg/kg/injection, schedule: Q06HX068 (ip), vehicle: other) 87 % of control; (endpoint: mean survival time, dose: 18.75 mg/kg/injection, schedule: Q#A X034 (ip), vehicle: other) 100 % of control; (endpoint: mean survival time, dose: 37.5 mg/kg/injection, schedule: Q01DX017 (ip), vehicle: other) 106 % of control; (endpoint: mean survival time, dose: 37.5 mg/kg/injection, schedule: Q#A X034 (ip), vehicle: other) 103 % of control; (endpoint: mean survival time, dose: 75.0 mg/kg/injection, schedule: Q01DX001 (ip), vehicle: other) 100 % of control; (endpoint: mean survival time, dose: 75.0 mg/kg/injection, schedule: Q01DX005 (ip), vehicle: other) 112 % of control. Moreover, the T/C is 102 % of control (endpoint: mean survival time, dose: 150.0 mg/kg/injection, schedule: Q01DX001 (ip), vehicle: other); 154 % of control (endpoint: mean survival time, dose: 150.0 mg/kg/injection, schedule: Q01DX017 (ip), vehicle: other); 155 % of control (endpoint: mean survival time, dose: 150.0 mg/kg/injection, schedule: Q#A X034 (ip), vehicle: other); 103 % of control (endpoint: mean survival time, dose: 300.0 mg/kg/injection, schedule: Q01DX001 (ip), vehicle: other).
Consider `CCOC(=O)CCC1(CCC(=O)OCC)OCCO1`, for which the T/C under setting [1] is 93 % of control; the T/C under setting [2] is 100 % of control; the T/C under setting [3] was 98 % of control; the T/C under setting [4] is 96 % of control; the T/C under setting [5] was 98 % of control; the T/C under setting [6] is 100 % of control.
For the compound `OC12CC3CC(CC(C3)C1)C2`, the T/C reads like this: (endpoint: mean survival time, dose: 50.0 mg/kg/injection, schedule: Q01DX001 (ip), vehicle: saline with Tween-80) 104 % of control; under setting [7], 116 % of control; under setting [8], 98 % of control.
Take `O=c1cc(NCCCOc2ccccc2)[nH]c(=O)[nH]1`: the T/C is 98 % of control under setting [7]; 98 % of control under setting [8]; 98 % of control (endpoint: mean survival time, dose: 400.0 mg/kg/injection, schedule: Q01DX001 (ip), vehicle: saline with Tween-80).
Take `O=C(O)C(=O)O.[La]`: the T/C is 98 % of control (endpoint: mean survival time, dose: 200.0 mg/kg/injection, schedule: Q01DX009 (ip), vehicle: other) and 96 % of control (endpoint: mean survival time, dose: 400.0 mg/kg/injection, schedule: Q01DX009 (ip), vehicle: other).
Turning to `C/C(=C/C(C)(C)C)C1CCCCC1C` (stereo not given), the T/C by setting is: (endpoint: mean survival time, dose: 50.0 mg/kg/injection, schedule: Q01DX009 (ip), vehicle: saline with Tween-80) 100 % of control; under setting [9], 100 % of control; under setting [10], 116 % of control.
Turning to `COc1cc(/C=C2\SC(=O)NC2=O)ccc1O`, under setting [9], the T/C was 105 % of control.
Regarding `CCN1/C(=C/C=C/C=C/c2sc3ccccc3[n+]2CC)Sc2ccccc21`, the T/C is 109 % of control (endpoint: mean survival time, dose: 0.08 mg/kg/injection, schedule: Q01DX009 (ip), vehicle: saline); 117 % of control (endpoint: mean survival time, dose: 0.09 mg/kg/injection, schedule: Q01DX009 (ip), vehicle: saline); 114 % of control (endpoint: mean survival time, dose: 0.12 mg/kg/injection, schedule: Q01DX009 (ip), vehicle: saline); 105 % of control (endpoint: mean survival time, dose: 0.16 mg/kg/injection, schedule: Q04DX003 (ip), vehicle: saline); 121 % of control (endpoint: mean survival time, dose: 0.19 mg/kg/injection, schedule: Q01DX009 (ip), vehicle: saline); 112 % of control (endpoint: mean survival time, dose: 0.25 mg/kg/injection, schedule: Q04DX003 (ip), vehicle: saline). The T/C by setting is: (endpoint: mean survival time, dose: 0.28 mg/kg/injection, schedule: Q01DX009 (ip), vehicle: saline) 114 % of control; (endpoint: mean survival time, dose: 0.33 mg/kg/injection, schedule: Q04DX002 (ip), vehicle: saline) 101 % of control; (endpoint: mean survival time, dose: 0.38 mg/kg/injection, schedule: Q04DX003 (ip), vehicle: saline) 108 % of control; (endpoint: mean survival time, dose: 0.42 mg/kg/injection, schedule: Q01DX009 (ip), vehicle: saline) 122 % of control; (endpoint: mean survival time, dose: 0.5 mg/kg/injection, schedule: Q04DX002 (ip), vehicle: saline) 112 % of control; (endpoint: mean survival time, dose: 0.57 mg/kg/injection, schedule: Q04DX003 (ip), vehicle: saline) 118 % of control. Moreover, the T/C (endpoint: mean survival time, dose: 0.66 mg/kg/injection, schedule: Q01DX001 (ip), vehicle: saline) was 120 % of control; the T/C (endpoint: mean survival time, dose: 0.76 mg/kg/injection, schedule: Q04DX002 (ip), vehicle: saline) was 106 % of control; the T/C (endpoint: mean survival time, dose: 0.85 mg/kg/injection, schedule: Q04DX003 (ip), vehicle: saline) is 112 % of control; the T/C (endpoint: mean survival time, dose: 0.99 mg/kg/injection, schedule: Q01DX001 (ip), vehicle: saline) is 118 % of control; the T/C (endpoint: mean survival time, dose: 1.1 mg/kg/injection, schedule: Q04DX002 (ip), vehicle: saline) was 114 % of control; the T/C (endpoint: mean survival time, dose: 1.5 mg/kg/injection, schedule: Q01DX001 (ip), vehicle: saline) is 100 % of control. In addition, the T/C reads like this: (endpoint: mean survival time, dose: 1.7 mg/kg/injection, schedule: Q04DX002 (ip), vehicle: saline) 97 % of control; (endpoint: mean survival time, dose: 2.2 mg/kg/injection, schedule: Q01DX001 (ip), vehicle: saline) 114 % of control; (endpoint: mean survival time, dose: 3.3 mg/kg/injection, schedule: Q01DX001 (ip), vehicle: saline) 114 % of control.
Turning to `COc1ccccc1C1C=CCCCC1` (stereo not given), the T/C by setting is: under setting [2], 95 % of control; under setting [4], 93 % of control; under setting [6], 96 % of control.
Consider `CCCCCCCCCCCCCCCCOc1ccccc1CNc1cc(Cl)ccc1Cl`, for which the T/C is 102 % of control under setting [9]; 95 % of control under setting [1]; 96 % of control under setting [10]; 95 % of control under setting [3]; 93 % of control (endpoint: mean survival time, dose: 400.0 mg/kg/injection, schedule: Q01DX009 (ip), vehicle: saline with Tween-80); 89 % of control under setting [5].
With `CC(=O)Nc1ccc(OC(C)=O)cc1`, the T/C reads like this: (endpoint: mean survival time, dose: 25.0 mg/kg/injection, schedule: Q04DX003 (ip), vehicle: saline with Tween-80) 97 % of control; (endpoint: mean survival time, dose: 50.0 mg/kg/injection, schedule: Q04DX003 (ip), vehicle: saline with Tween-80) 97 % of control; under setting [1], 101 % of control.
Consider `O=Cc1cccc2ccc3ccccc3c12`, for which the T/C (endpoint: median survival time, dose: 50.0 mg/kg/injection, schedule: Q04DX002 (ip), vehicle: saline with Tween-80) is 111 % of control; the T/C (endpoint: median survival time, dose: 100.0 mg/kg/injection, schedule: Q04DX002 (ip), vehicle: saline with Tween-80) is 100 % of control; the T/C (endpoint: median survival time, dose: 200.0 mg/kg/injection, schedule: Q04DX002 (ip), vehicle: saline with Tween-80) was 111 % of control.
`CCOC(=O)C1(C(=O)OCC)C(C)CC(OCC)N1C(=O)c1cc2c(cc1[N+](=O)[O-])OCO2` (stereo not given): the T/C (endpoint: mean survival time, dose: 100.0 mg/kg/injection, schedule: Q01DX001 (ip), vehicle: Klucel (hydroxypropylcellulose) (HPC)) was 100 % of control; the T/C (endpoint: mean survival time, dose: 200.0 mg/kg/injection, schedule: Q01DX001 (ip), vehicle: Klucel (hydroxypropylcellulose) (HPC)) was 100 % of control; the T/C (endpoint: mean survival time, dose: 400.0 mg/kg/injection, schedule: Q01DX001 (ip), vehicle: Klucel (hydroxypropylcellulose) (HPC)) is 100 % of control.
Consider `Cn1c(=O)[nH]c2c(nc(-c3ccccc3)n2Cc2ccccc2)c1=O`, for which the T/C runs as follows: (endpoint: mean survival time, dose: 7.8 mg/kg/injection, schedule: Q01DX005 (ip), vehicle: other) 95 % of control; (endpoint: mean survival time, dose: 15.6 mg/kg/injection, schedule: Q01DX005 (ip), vehicle: other) 95 % of control; (endpoint: mean survival time, dose: 31.3 mg/kg/injection, schedule: Q01DX005 (ip), vehicle: other) 91 % of control; (endpoint: mean survival time, dose: 62.5 mg/kg/injection, schedule: Q01DX005 (ip), vehicle: other) 91 % of control; (endpoint: mean survival time, dose: 125.0 mg/kg/injection, schedule: Q01DX005 (ip), vehicle: other) 95 % of control.
Consider `CC(C)(C)c1cc([N+](C)(C)C)cc(C(C)(C)C)n1`, for which the T/C by setting is: (endpoint: mean survival time, dose: 12.5 mg/kg/injection, schedule: Q04DX002 (ip), vehicle: saline with Tween-80) 96 % of control; (endpoint: mean survival time, dose: 25.0 mg/kg/injection, schedule: Q04DX002 (ip), vehicle: saline with Tween-80) 92 % of control; (endpoint: mean survival time, dose: 50.0 mg/kg/injection, schedule: Q04DX002 (ip), vehicle: saline with Tween-80) 100 % of control.

The values above are taken from PubChem BioAssay AID256 (DTP/NCI, 2004).
